In general, IC50 refers to the concentration that inhibits the measured activity by half.

These results are taken from patent US20260199384A1, “METHOD AND COMPOSITIONS FOR TREATING SKIN DISORDERS” (PHOENIX ANIMAL WELLNESS, INC., priority 2023, published 2026).

The test system of series [1] is human peripheral blood mononuclear cells. In words: Cytokine, chemokine and growth factor production in human PBMC cultures (Example 13). Format: cell-based. The source says:
Proof of the antipruritic activity of oleandrin was established in vitro according to Example 13 by measuring its effect upon on the expression of key cytokines, chemokines, and other factors that are part of the innate immune system. An in vitro model of human peripheral blood mononuclear cells was used to determine effects the effects of OCC under different culture conditions: normal (no inflammation) and inflamed by lipopolysaccharide (LPS).
Reagents. Dulbecco's phosphate-buffered saline (Gibco cat. #141190-136), lipopolysaccharide (LPS) (Invitrogen cat. #00-4976-93), Roswell Park Memorial Institute 1640 cell culture medium (Gibco cat. #11835-030), Fetal Bovine Serum (Gibco cat. #A38401-01), penicillin-streptomycin 100× (Gibco cat. #15140-122), CD69 fluorescein isothiocyanate (clone FN50, Invitrogen cat. #11-0699-42), CD56 phycoerythrin (clone CMSSB Invitrogen cat. #12-0567-42), and CD3 Super Bright 645 (clone OKT3 Invitrogen cat. #64-0037-42) were purchased from Thermo Fisher Scientific (Waltham, MA, USA). CD25 Brilliant Violet 421 (clone 2A3 BD cat. #564033) and sodium heparin Vacutainer tubes (BD cat. #367878) were purchased from Becton-Dickinson (Franklin Lakes, NJ, USA). The human erythroleukemia cell line K562 was purchased from American Type Culture Collection (Manassas, VA, USA). Customized Bio-Plex Pro™ human cytokine arrays were purchased from Bio-Rad Laboratories Inc. (Hercules, CA, USA). […]
The two products were handled in the following manner: (1) A stock solution of PBI was prepared in DMSO, and subsequent dilutions were prepared in phosphate-buffered saline. […] The range of concentrations in cell cultures was calculated based on the % oleandrin and ranged from 0.5 to 500 ng oleandrin/mL cell culture medium. […]
Immune cell activation. […] The PBMC were washed twice in PBS and counted, and the density was adjusted to establish 0.18 mL cultures with a cell density at 106/mL, using Roswell Park Memorial Institute 1640 medium containing 10% fetal calf serum and 1% penicillin-streptomycin. […]

Series [2] relates to Natural Killer (NK) cells and monocytes. The experiment in a line: Immune cell activation in PBMC cultures (CD69, CD25; Example 13). Format: cell-based, human. Here is the method: Immune cell activation. Peripheral venous blood was drawn from healthy human donors upon written informed consent, as approval by the Sky Lakes Medical Center Institutional Review Board, Federalwide Assurance 2603. The blood was drawn into heparin vacutainer vials, and the peripheral blood mononuclear cells (PBMC) were isolated using Lympholyte Poly by centrifugation for 35 min at 400×g. The PBMC were washed twice in PBS and counted, and the density was adjusted to establish 0.18 mL cultures with a cell density at 106/mL, using Roswell Park Memorial Institute 1640 medium containing 10% fetal calf serum and 1% penicillin-streptomycin.
Cultures were then incubated at 37° C., 5% CO2 for 24 h. The highly inflammatory LPS from Escherichia coli was used as a positive control for immune-cell activation. In parallel, IL-2 was used as a positive control for natural killer (NK)-cell activation, at a concentration of 100 IU/mL in cell culture. Untreated negative control cultures consisted of PBMC exposed to phosphate-buffered saline in the absence of test products. […] The fluorescence intensities for CD3, CD25, CD56, and CD69 were measured by flow cytometry, using an Attune NxT acoustic-focusing flow cytometer (Thermo Fisher Scientific, Waltham, MA, USA). […] The lymphocyte subpopulation was further analyzed for CD25 and CD69 expression on CD3−CD56+ NK cells, CD3+ CD56+ NKT cells, and CD3+CD56− T cells.

In series [3] the test system is K562 human myelogenous leukemia target cells. In words: Cytotoxicity towards K562 target cells (CD107a; Example 13). Format: cell-based. Particulars: PBMC co-cultured with K562. The source says: Natural killer (NK) cell cytotoxicity towards K562 human myelogenous leukemia target cells. The cell surface expression of CD107a (LAMP-1) is a marker for secretory degranulation of NK and activated cytotoxic T cells when they are co-cultured with malignant or virus-infected target cells. Peripheral blood mononuclear cells from healthy human donors were co-cultured with K562 cells in the absence versus presence of test products or matching concentrations of the DMSO solvent control. All treatments, including each concentration of test product and each positive and negative control, were tested in triplicate. CD107a-FITC antibody (6.5 μL/well) was added at the beginning of each culture, along with the protein transport inhibitor BD GolgiStop™, which contains Monensin and blocks intracellular protein transport processes. After 4 h of incubation at 37° C., 5% CO2, the cells were washed in phosphate-buffered saline and stained with CD3-PerCP and CD56-PE antibodies and then fixed in formalin. Flow cytometry analysis was performed where the strategy involved initial gating of the lymphocyte and monocyte subpopulations using the forward/side scatter plot, followed by analysis of T cells and NK cells in the lymphocyte population. The fluorescence intensity of CD107a was evaluated as the mean fluorescence intensity on monocytes, NK cells, and T cells.

The test system of series [4] is canine DH82 macrophage cell line. In words: Cytokine assay in DH82 macrophage cultures (Example 26). It is filed as cell-based.
In series [5] the test system is Primary canine dermal fibroblasts. The experiment in a line: Cytokine assay in primary dermal fibroblast cultures (Example 26). It is filed as cell-based.
Series [6] deals with BT (Bos taurus turbinate), MDBK (Bos taurus kidney) and MARC 145 (monkey kidney) cells. In words: Lactate dehydrogenase release assay (LDH assay), Example 18. Format: cell-based. The conditions noted are these: up to concentrations of 1 microg/mL. Here is the method:
Oleandrin (PhytoLab, Vestenbergsgreuth, Germany) was dissolved at a concentration of 1 mg/ml in DMSO. The desired concentration range to be used in cytotoxicity testing is 0.005-1 ug/ml in 0.0005-0.1% wt in DMSO, respectively. Lactate dehydrogenase release assay (LDH assay) was be used to determine the cytotoxic effect of different concentration of Oleandrin on different cell cultures. LDH is a cytosolic enzyme that is released only from damaged cells (due to increased membrane permeability) to the outside medium that will convert the lactate in the medium into pyruvate in a coupled reaction that includes the reduction of NAD+ into NADH, the latter is oxidized back to NAD+ in the presence of Diaphorase in the LDH kit mix that leads to the reduction of water soluble tetrazolium (INT), that is also in the kit mix, into red Formazon product that can be read by an ELISA reader at a wave length of 490 nm. […]
This was achieved by preparing different concentration of cells in 100 μl volume staring at 1000 cell/100 μl to 20,000 cell/100 μl in a 2-fold serial dilution manner. […] After performing the test according to the manufacturer instructions, the average OD value reading of the triplicate for each dilution in each set was taken and plotted against number of cells. […] Absorbance is measured at 490 nm and 680 nm using Spectramax i3x. […]

Series [7] has as its system dogs suffering from pruritus or atopic dermatitis. In words: Treatment of pruritus / atopic dermatitis in dogs (Examples 14, 15, 28). The conditions noted are these: oral, 1-2 times daily, 2-6 or 3-5 microg oleandrin/Kg. It is filed as in vivo, dog. As for the experimental part:
A dog presenting with pruritus was administered the aqueous liquid composition of Example 2. It contained 0.1-5 μg OLE/mL. The composition (0.25-1 mL) was administered (1-4 times daily) directly to the dog's mouth, thereby resulting in a combination of buccal and sublingual administration. […] Both inflammation and itchiness were relieved.
A dog presenting with pruritus was administered the MCT-based composition of Example 21. It contained 12-25 μg OLE/mL. A few drops of the composition (0.25-1 mL) is administered (1-4 times daily) directly to the dog's mouth, thereby resulting in a combination of buccal and sublingual administration. […] Both inflammation and itchiness were relieved.
A dog presenting with pruritus was administered the aqueous liquid composition of Example 11. The composition was sprayed (1-4 pumps) directly onto the itchy area of the dog and rubbed into the skin and fur/hair. […] Both inflammation and itchiness were relieved.
Oleandrin (oleander extract) was orally administered in two different forms. The oil-based formulation of Example 21 was sprayed onto dog treats and administered between meals or sprayed onto dog food and administered as part of a meal. The chews of Example 27 were orally administered between meals. Both products were administered 1-2 times daily at doses ranging from 2-6 (preferably 3-5) microg oleandrin/Kg of bodyweight. […]

For series [8], the system named is JAK1-dependent cytokines involved in allergy and inflammation (IL-2, IL-4, IL-6, and IL-13) as well as pruritus (IL-31). Particulars: published data; cited from earlier work.
Series [9] deals with erythropoietin, granulocyte/macrophage colony-stimulating factor, IL-12, IL-23. The conditions noted are these: GM-CSF, read-out: IC50's, cytokines that do not activate the JAK1 enzyme in cells; cited from earlier work.
In the next series the test system is JAK kinases. Particulars: range over JAK kinases; read-out: IC50, inhibition of JAK kinases; cited from earlier work.
In a further series the test system is T cell proliferation. The conditions noted are these: published data; cited from earlier work.
Series [10] deals with murine CD4+ and CD8+ T cells. Particulars: not IFN-γ-producing cells; cited from earlier work.

Structures are written as SMILES.

As to `CO[C@H]1C[C@H](O[C@H]2CC[C@@]3(C)[C@H](CC[C@@H]4[C@@H]3CC[C@]3(C)[C@@H](C5=CC(=O)OC5)[C@@H](OC(C)=O)C[C@]43O)C2)O[C@@H](C)[C@@H]1O` [oleandrin], the production of cytokines entry in series [1] is “increased”. Moreover, in series [1] (0.5 to 500 ng oleandrin/mL), the “expression of IFN-γ, G-CSF, and IL-6” value is “induced”; the “formation/expression of IL-21, IL-22, IL-23, IL-25, IL-31, IL-33, and TNF-α” value was “suppressed”. In addition, the “activation of Natural Killer (NK) cells and monocytes” value in [2] was “directly activated”. In addition, the “T cell cytotoxic attack on malignant target cells” value in series [3] is on record as “increased”. Moreover, in series [4] (DH82 macrophage cultures, inflamed conditions (LPS), 24 hours), the “IL-6, IL-12/IL-23p40, IFN-γ, TNF-α, VEGF, and NGF-β” value is “reductions”. Further, in series [5], the “levels of IL-8 and MCP-1” value is listed as “reduced”. For the same compound, the “toxicity, release of lactate dehydrogenase” value in [6] is on record as “no additional toxicity over control vehicle”. In addition, in [7], the “time until improvements became evident” value lay in the range of 1 to 3 days. For the same compound, in [7] (as included in an oleander extract), the itching and scratching result is “significant reduction in itching and scratching”.

In the case of `CNS(=O)(=O)C[C@H]1CC[C@H](N(C)c2ncnc3[nH]ccc23)CC1` [oclacitinib], the “IL-6, IFN-γ, and NGF-β” value in [4] (cytokines involved in dermal inflammation) was “increases”. The “TGF-β1, IL12/IL-23p40, and TNF-α” value in series [4] (less robust than the reductions triggered by OE and oleandrin) was “reductions”. Besides, the “levels of IL-8 and MCP-1” value in series [5] is recorded as “little or no effect”. The “concentrations at which anti-inflammatory properties have been reported” value in series [8] was 36 to 249 nM. Moreover, the 50% inhibitory concentration (IC50) is > 1 µM in [9] and 0.01 to 0.099 µM in the series with JAK kinases. Moreover, the “concentration at which inhibition of T cell proliferation was seen” value in the series on T cell proliferation was 10 µM. The “frequency of IL-4- and IL-10-producing murine CD4+ and CD8+ T cells” value in series [10] is “reduces”.
